These results are taken from paper PMC2976052 (The Journal of steroid biochemistry and molecular biology, 2010).

Each structure is given as a SMILES string. Read-outs that look alike come from different tables or passages of the source.

Usually EC50 stands for the concentration giving half of the maximal effect. Lower therefore signals higher potency in that assay.

Data set [1] has as its target T1, GFP-GRER chimera (Homo sapiens, UniProt P03372). The experiment in a line: cell-based.
For data set [2], the target named is T1, GFP-GRER chimera. The settings on record: ER agonist treatment ref 17; cited from earlier work.
A further data set concerns parental C127 cell line. The class given is cell-based, murine. The settings on record: for nuclear fluorescence in parental cell line: hits retested in parental cell line; for nuclear translocation: parental cell line.
Another data set relates to 6020 cells. Description: Cytotoxicity measurements by image analysis.
For data set [3], the target named is T1, GFP-GRER chimera.
Where [4] appears, read: estradiol dose response, five 384-well plates.
The mark [5] stands for this setting: staurosporine dose-response, 4 hours, 96-well.

T1 sequence (P03372 302-595, change not shown): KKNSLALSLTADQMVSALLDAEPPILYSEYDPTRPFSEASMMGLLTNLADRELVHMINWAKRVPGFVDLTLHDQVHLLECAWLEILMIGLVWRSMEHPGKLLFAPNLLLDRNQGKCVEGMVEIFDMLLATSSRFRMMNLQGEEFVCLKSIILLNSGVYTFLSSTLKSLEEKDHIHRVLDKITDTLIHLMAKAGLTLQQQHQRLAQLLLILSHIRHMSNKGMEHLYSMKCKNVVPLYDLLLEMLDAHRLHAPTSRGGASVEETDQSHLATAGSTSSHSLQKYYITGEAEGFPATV

On to `CCCc1c(-c2ccc(O)cc2)nn(-c2ccc(O)cc2)c1-c1ccc(O)cc1` [PPT, propyl pyrazoletriol], for which, at GFP-GRER chimera [1], a half-maximal response (EC50) required 141 nM. Moreover, at GFP-GRER chimera [2], the “effect on transcription, ERE-driven gene reporter” value is on record as “induced transcription”.
Take `C[C@]12CC[C@@H]3c4ccc(O)cc4CC[C@H]3[C@@H]1CC[C@@H]2O` [estradiol, 17-β estradiol]: the “nuclear fluorescence in parental cell line” value in the data set with parental C127 cell line is listed as “did not show nuclear fluorescence”. Moreover, the nuclear translocation in the data set with parental C127 cell line (5 μM estradiol control) stood at 0%. In the data set with 6020 cells (setting [4]), the cytoplasmic area result was “does not decrease” and the nuclear area entry was “remains unchanged”.
With `C[C@]12CC[C@@H]3c4ccc(O)cc4CC[C@H]3[C@@H]1CCC2=O` [estrone], in the data set on parental C127 cell line, the “nuclear fluorescence in parental cell line” value is recorded as “did not show nuclear fluorescence”.
In the case of `CN[C@@H]1C[C@H]2O[C@@](C)([C@@H]1OC)n1c3ccccc3c3c4c(c5c6ccccc6n2c5c31)C(=O)NC4` [staurosporine], the “nuclear translocation result of cytotoxic compound” value on GFP-GRER chimera [3] (staurosporine dose-response for 4 hours, 96-well) was “false positive nuclear translocation results”. In the data set with 6020 cells (setting [5]), the cytoplasmic area result is “dose-dependent decrease in cytoplasmic area” and the nuclear area result was “dose-dependent decrease in nuclear area”. The “ROIs (cell number)” value in the data set on 6020 cells (staurosporine dose-response, data not shown) was “decrease in cell number with increasing staurosporine concentration”.
Take `COc1cccc2c1C(=O)c1c(O)c3c(c(O)c1C2=O)C[C@@](O)(C(=O)CO)C[C@@H]3O[C@H]1C[C@H](N)[C@H](O)[C@H](C)O1` [adriamycin]: the nuclear translocation with parental C127 cell line (hit retest in quadruplicate) is reported as 95%; at GFP-GRER chimera [3] (6020 (assay) cell line, hit retest in quadruplicate), 97%.
`O=C(c1ccc(OCCN2CCCCC2)cc1)c1c(-c2ccc(O)cc2)sc2cc(O)ccc12` [raloxifene]: the nuclear translocation with parental C127 cell line (hit retest in quadruplicate) was determined as 0%.
